The record followed here is patent US8853246B2 (Dow AgroSciences LLC, priority 2009, dated 2014).

Molecules are shown by their SMILES. Read-outs that look alike come from different tables or passages of the source.

Test [1] has as its system Green Peach Aphid (Myzus Persicae). Nature of the test: Insecticidal test for green peach aphid in foliar spray assay (col. MYZUPE). Type of test: in vivo. The note with it: for pest or weed control at 200 ppm: Myzus persicae, 72 h, read-out: MYZUPE 200 ppm (Corrected % Control, rating). In outline: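 Cabbage seedlings with 2-3 true leaves, infested with 20-50 wingless adult and nymph aphids one day earlier, sprayed to runoff at 200 ppm (acetone/methanol stock diluted in 0.025% Tween 20), four pots per treatment. After 3 days at ~25 °C, 40% RH, live aphids counted; corrected % control versus solvent-sprayed plants.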

Test [2] relates to Sweetpotato Whitefly-Crawler (Bemisia Tabaci). Nature of the test: Insecticidal test for sweetpotato whitefly-crawler in foliar spray assay (col. BEMITA). Format: in vivo. To be noted: for pest or weed control at 200 ppm: Bemisia tabaci, read-out: BEMITA 200 ppm (Corrected % Control, rating). The procedure, abridged:
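Cotton plants (one 3-5 cm true leaf) infested with whitefly eggs (100-300/plant), held 5-6 days at 82° F, 50% RH until crawlers developed. Sprayed to runoff at 200 ppm (acetone stock diluted in 0.025% Tween 20), four plants per treatment. Live nymphs counted after 8-9 days; % control by Abbott's correction versus solvent check.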

As to `Cc1nc(-c2cncc(F)c2)sc1N(C)C(=O)C1CCSC1` (stereo not drawn) [Compound 214], the pest or weed control at 200 ppm in test [1] (green peach aphid) and in test [2] (sweetpotato whitefly-crawler) was 80 to 100% throughout.
As for `Cc1nc(-c2cccnc2)sc1N(C)C(=O)c1cccc(SC(F)F)c1` [Compound 397], the pest or weed control at 200 ppm in test [1] (green peach aphid) and in test [2] (sweetpotato whitefly-crawler) was 80 to 100% each time.
In the case of `Cc1nc(-c2cccnc2)sc1N(CC1CC1(F)F)C(=O)OC(C)(C)C` (stereo not drawn) [Compound 461], the pest or weed control at 200 ppm in test [1] (Abbott's correction formula) was 80 to 100%; in test [2] (Abbott's correction formula) it was below 80%.
Consider `CSCC(C)C(=O)N(c1sc(-c2cccnc2)nc1C)C(C)C` (stereo not drawn) [Compound 222], for which the results for the pest or weed control at 200 ppm in test [1] (green peach aphid) and in test [2] (sweetpotato whitefly-crawler) were 80 to 100% and below 80%, respectively.
Consider `CN(C(=O)C1CCOC1)c1sc(-c2cccnc2)nc1Cl` (stereo not drawn) [Compound 415], for which, in test [1] (green peach aphid), the “MYZUPE 200 ppm (Corrected % Control, rating)” value is listed as “A (80-100)”. Also, the “BEMITA 200 ppm (Corrected % Control, rating)” value in test [2] (sweetpotato whitefly-crawler) is recorded as “A (80-100)”.
Take `CC(=O)OC(C)C(=O)Nc1sc(-c2cccnc2)nc1C` (stereo not drawn) [Compound 334]: the pest or weed control at 200 ppm in test [1] (green peach aphid) was 80 to 100%; in test [2] (sweetpotato whitefly-crawler), below 80%.
On the same counts, the results for `COC(=O)CCC(=O)N(C)c1sc(-c2cccnc2)nc1C` [Compound 252] are 80 to 100% and 80 to 100%.
Take `CSCCNC(=O)N(C)c1cnc(-c2cncc(F)c2)s1` [Compound 72, [2-(5-fluoropyridin-3-yl)-thiazol-5-yl]-1-methyl-3-(2-methylsulfanyl-ethyl)urea]: the pest or weed control at 200 ppm was 80 to 100% in test [1] (green peach aphid) and below 80% in test [2] (sweetpotato whitefly-crawler).
On the same counts, the results for `Cc1nc(-c2cccnc2)sc1N(CCF)C(=O)OC(C)(C)C` [Compound 301] are 80 to 100% and 80 to 100%.
On the same counts, the results for `Cc1nc(-c2ccc(F)nc2)sc1N(C(=O)C(C)C)C(=O)C(C)C` [Compound 162] are 80 to 100% and 80 to 100%.
On the same counts, the results for `CCSCC(=O)N(C)c1sc(-c2cccnc2)nc1C` [Compound 358] are 80 to 100% and 80 to 100%.
Turning to `CCN(C(=O)CC(C)(C)SC)c1sc(-c2cccnc2)nc1Cl` [Compound 490], the pest or weed control at 200 ppm in test [1] (Abbott's correction formula) is 80 to 100%; in test [2] (Abbott's correction formula) it was below 80%.
As for `CCN(C(=O)c1ccc(CSC)o1)c1sc(-c2cccnc2)nc1Cl` [Compound 545], the pest or weed control at 200 ppm in test [1] (Abbott's correction formula) is 80 to 100%; in test [2] (Abbott's correction formula), below 80%.
Regarding `Cc1nc(-c2cccnc2)sc1N(C)C(=O)c1ccns1` [Compound 345], in test [1] (green peach aphid), the “MYZUPE 200 ppm (Corrected % Control, rating)” value is “A (80-100)”. In test [2] (sweetpotato whitefly-crawler), the “BEMITA 200 ppm (Corrected % Control, rating)” value was “A (80-100)”.
In the case of `C/C=C/CN(C(=O)OC(C)(C)C)c1sc(-c2cccnc2)nc1C` [Compound 463], the pest or weed control at 200 ppm in test [1] (Abbott's correction formula) and in test [2] (Abbott's correction formula) was below 80% in each case.
As to `CSCc1ccc(C(=O)Nc2sc(-c3cccnc3)nc2C)o1` [Compound 408], the pest or weed control at 200 ppm in test [1] (green peach aphid) and in test [2] (sweetpotato whitefly-crawler) was 80 to 100% each time.
On to `CN(C(=O)C1CCCC1)c1sc(-c2cccnc2)nc1Cl` [Compound 553], for which the pest or weed control at 200 ppm in test [1] (Abbott's correction formula) is below 80%; in test [2] (Abbott's correction formula), 80 to 100%.
With `CSCC(C)C(=O)N(C(=O)OC(C)(C)C)c1sc(-c2cccnc2F)nc1C` (stereo not drawn) [Compound 154], the pest or weed control at 200 ppm in test [1] (green peach aphid) and in test [2] (sweetpotato whitefly-crawler) was below 80% each time.
Regarding `CN(C(=O)c1cccc(SC(F)F)c1)c1sc(-c2cccnc2)nc1Cl` [Compound 382], the pest or weed control at 200 ppm in test [1] (green peach aphid) and in test [2] (sweetpotato whitefly-crawler) was below 80% in each case.
`CC(C)C(=O)N1CCCC(C(=O)N(C)c2sc(-c3cccnc3)nc2Cl)C1` (stereo not drawn) [Compound 411]: the pest or weed control at 200 ppm in test [1] (green peach aphid) and in test [2] (sweetpotato whitefly-crawler) was 80 to 100% in each case.
In the case of `COc1cncc(-c2nc(Cl)c(N(C)C(=O)CC[S+](C)[O-])s2)c1` (stereo not drawn) [Compound 514], the pest or weed control at 200 ppm in test [1] (Abbott's correction formula) and in test [2] (Abbott's correction formula) was below 80% each time.
For the molecule `CSCCN(C)C(=O)N(C)c1cnc(-c2cncc(F)c2)s1` [Compound 74, [2-(5-fluoropyridin-3-yl)-thiazol-5-yl]-1,3-dimethyl-3-(2-methylsulfanyl-ethyl)urea], the pest or weed control at 200 ppm in test [1] (green peach aphid) and in test [2] (sweetpotato whitefly-crawler) was 80 to 100% throughout.
On to `CCN(C(=O)CCS(C)(=O)=O)c1sc(-c2cccnc2)nc1C` [Compound 239], for which, in test [1] (green peach aphid), the “MYZUPE 200 ppm (Corrected % Control, rating)” value was “A (80-100)”. In addition, in test [2] (sweetpotato whitefly-crawler), the “BEMITA 200 ppm (Corrected % Control, rating)” value is on record as “A (80-100)”.
As for `CC(=O)c1ccc(C(=O)N(C)c2sc(-c3cccnc3)nc2C)s1` [Compound 350], the pest or weed control at 200 ppm in test [1] (green peach aphid) and in test [2] (sweetpotato whitefly-crawler) was below 80% each time.
On to `CSCC(C)(C)C(=O)Nc1sc(-c2cncc(F)c2)nc1C` [Compound 139], for which the pest or weed control at 200 ppm in test [1] (green peach aphid) and in test [2] (sweetpotato whitefly-crawler) was 80 to 100% in each case.
With `Cc1nc(-c2cccnc2)sc1N(C)C(=O)C(C)C` [Compound 37], the pest or weed control at 200 ppm in test [1] (green peach aphid) and in test [2] (sweetpotato whitefly-crawler) was 80 to 100% throughout.
Consider `CSCCC(=O)N(C)c1sc(-c2cccnc2)nc1C` [Compound 35], for which the pest or weed control at 200 ppm in test [1] (green peach aphid) and in test [2] (sweetpotato whitefly-crawler) was 80 to 100% in each case.
As to `CCN(C(=O)OC(C)(C)C)c1sc(-c2cncc(F)c2)nc1F` [Compound 423], the pest or weed control at 200 ppm was below 80% in test [1] (green peach aphid) and 80 to 100% in test [2] (sweetpotato whitefly-crawler).
Regarding `COCC(C)(C)OC(=O)N(C)c1sc(-c2cccnc2)nc1C` [Compound 302], the pest or weed control at 200 ppm in test [1] (green peach aphid) was below 80%; in test [2] (sweetpotato whitefly-crawler), 80 to 100%.
On the same counts, the results for `CSCCC(=O)N(C)c1sc(-c2cccnc2)nc1C(C)C` [Compound 59] are below 80% and 80 to 100%.
In the case of `CN(C(=O)c1cscn1)c1sc(-c2cccnc2)nc1Cl` [Compound 341], the “MYZUPE 200 ppm (Corrected % Control, rating)” value in test [1] (green peach aphid) is “B (Less than 80)”. Also, the “BEMITA 200 ppm (Corrected % Control, rating)” value in test [2] (sweetpotato whitefly-crawler) is reported as “B (Less than 80)”.
In the case of `CCN(C(=O)C(C)C)c1sc(-c2cccnc2)nc1-c1ccccc1` [Compound 63], the pest or weed control at 200 ppm in test [1] (green peach aphid) and in test [2] (sweetpotato whitefly-crawler) was below 80% throughout.
`CSCC(C)C(=S)Nc1sc(-c2cccnc2)nc1C` (stereo not drawn) [Compound 180, 2-methyl-N-(4-methyl-2-pyridin-3-yl-thiazol-5-yl)-3-methylsulfanyl-thiopropionamide]: the pest or weed control at 200 ppm in test [1] (green peach aphid) and in test [2] (sweetpotato whitefly-crawler) was 80 to 100% throughout.
Consider `CSC(C)CC(=O)N(C)c1sc(-c2cncc(F)c2)nc1Cl` (stereo not drawn) [Compound 442], for which the pest or weed control at 200 ppm in test [1] (Abbott's correction formula) and in test [2] (Abbott's correction formula) was 80 to 100% in each case.
As for `CSC(C)C(C)C(=O)N(C)c1sc(-c2cccnc2)nc1Cl` (stereo not drawn) [Compound 516], the pest or weed control at 200 ppm is 80 to 100% in test [1] (Abbott's correction formula) and below 80% in test [2] (Abbott's correction formula).
On to `CCC(CS(C)(=O)=O)C(=O)N(CC)c1sc(-c2cccnc2)nc1Cl` (stereo not drawn) [Compound 560], for which the pest or weed control at 200 ppm in test [1] (Abbott's correction formula) and in test [2] (Abbott's correction formula) was 80 to 100% in each case.
`C[S+]([O-])CCC(=O)Nc1sc(-c2cncc(F)c2)nc1Cl` (stereo not drawn) [Compound 451]: the “MYZUPE 200 ppm (Corrected % Control, rating)” value in test [1] (Abbott's correction formula) was “A (80-100)”. In addition, in test [2] (Abbott's correction formula), the “BEMITA 200 ppm (Corrected % Control, rating)” value is listed as “B (Less than 80)”.
As for `C[C@H](C(=O)N(C)c1sc(-c2cccnc2)nc1Cl)N(C)C(=O)OCc1ccccc1` [Compound 440], the pest or weed control at 200 ppm in test [1] (Abbott's correction formula) and in test [2] (Abbott's correction formula) was below 80% throughout.
Turning to `COCN(C(=O)C(C)CSC)c1sc(-c2cccnc2)nc1C` (stereo not drawn) [Compound 196], the pest or weed control at 200 ppm in test [1] (green peach aphid) and in test [2] (sweetpotato whitefly-crawler) was 80 to 100% throughout.
As for `Cc1nc(C)n(CC(C)C(=O)Nc2sc(-c3cccnc3)nc2C)n1` (stereo not drawn) [Compound 332], the pest or weed control at 200 ppm is 80 to 100% in test [1] (green peach aphid) and below 80% in test [2] (sweetpotato whitefly-crawler).
On the same counts, the results for `CSCCC(=O)N(C(=O)CCSC)c1sc(-c2cncc(F)c2)nc1C` [Compound 185] are 80 to 100% and 80 to 100%.
The corresponding values for `CSCC(C)C(=O)N(C)c1sc(-c2cncnc2)nc1C` (stereo not drawn) [Compound 52] are below 80% and 80 to 100%.
The corresponding values for `CCN(C(=O)CCSC(C)C)c1sc(-c2cccnc2)nc1C` [Compound 323] are 80 to 100% and below 80%.
On to `COc1cncc(-c2nc(Cl)c(N(C)C(=O)CCSC)s2)c1` [Compound 513], for which the pest or weed control at 200 ppm in test [1] (Abbott's correction formula) and in test [2] (Abbott's correction formula) was below 80% in each case.
For the molecule `CC(C)C(=O)N(C)c1sc(-c2cccnc2)nc1C(F)(F)F` [Compound 46], the pest or weed control at 200 ppm in test [1] (green peach aphid) and in test [2] (sweetpotato whitefly-crawler) was below 80% in each case.
Turning to `Cc1nc(-c2cccnc2)sc1N(C)C(=O)CN(C)S(=O)(=O)/C=C/c1ccccc1` [Compound 436], the pest or weed control at 200 ppm in test [1] (Abbott's correction formula) and in test [2] (Abbott's correction formula) was below 80% throughout.
For the molecule `Cc1nc(-c2cccnc2)sc1N(C(=O)OC(C)(C)C)C(C)C` [Compound 13, Isopropyl-(4-methyl-2-pyridin-3-yl-thiazol-5-yl)-carbamic acid tert-butyl ester], the pest or weed control at 200 ppm in test [1] (green peach aphid) and in test [2] (sweetpotato whitefly-crawler) was 80 to 100% throughout.
As to `CCN(C(=O)c1cnn(C(C)(C)C)c1C)c1sc(-c2cccnc2)nc1Cl` [Compound 578], the pest or weed control at 200 ppm in test [1] (Abbott's correction formula) and in test [2] (Abbott's correction formula) was 80 to 100% in each case.
